This note sets out measurements from patent US20220024921A1, “1,3,4-OXADIAZOLONE COMPOUND AND PHARMACEUTICAL” (NIPPON SHINYAKU CO., LTD., priority 2018, published 2022).

For assay [1], the target named is T1, PIM1 serine/threonine kinase (Homo sapiens, UniProt P11309).
T1 construct: purchased Carna Bioscience, Inc
The experiment in a line: PIM1 serine/threonine kinase inhibitory effect. The class given is biochemical. As to conditions: PIM1 serine/threonine kinase activity; ATP 40 μM; 30° C., 30 minutes. The gist of the method: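 Compounds were tested in duplicate from 0.01 to 10000 nM final against PIM1 kinase (0.15 μg/ml). The reaction ran for 30 minutes at 30° C with 40 μM ATP and 0.5 μM biotin-tagged substrate at pH 7.0. Phosphorylation was read by time-resolved FRET (OD665/OD620) after 1 h; IC50 by non-linear fit.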

Assay [2] addresses PIM1 transgenic cells (Ba/F3) (Homo sapiens, UniProt P11309). The experiment in a line: Proliferation inhibitory effect on PIM1 transgenic cells. The assay is classed as cell-based, mouse. As to conditions: proliferation inhibition, 72 hours, Cell Counting Kit-8, read-out: PIM1 IC50. The gist of the method: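 Mouse Ba/F3 pro-B cells were retrovirally transduced with human PIM1 so that their proliferation depends on PIM1. Cells were treated with compound at 1–10000 nM final for 72 h, then read by CCK-8 (OD450−OD650). Inhibition was set against DMSO (0%) and no-cell blank (100%), and IC50 was obtained by two-parameter logistic regression.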
(In general: Tetrazolium dyes change colour on reduction, which living cells bring about.)

For assay [3], the target named is PIM2 transgenic cells (Ba/F3) (Homo sapiens, UniProt Q9P1W9). The experiment in a line: Proliferation inhibitory effect on PIM2 transgenic cells. The assay is classed as cell-based, mouse. The note with it: proliferation inhibition, 72 hours, Cell Counting Kit-8, read-out: PIM2 IC50. The text has this:
(§1) Human PIM1, 2, and 3 genes were inserted into the multi-cloning sites of retrovirus expression vectors pMYs-IRES-GFP, respectively, to prepare gene transfer vectors. Then, each gene transfer vector was introduced into packaging cells PLAT-E derived from a human fetal kidney cell line in the logarithmic growth phase, using a transfection reagent (FuGENE6, Promega Corporation). Since the culture supernatant of PLAT-E after gene transfer contained virus particles for gene transfer, the culture supernatant was collected and used as a medium for gene transfer. The medium for gene transfer was added to a plate coated with RetroNectin, and the plate was incubated to attach the virus particles to the plate. Then, a mouse pro-B cell line Ba/F3 in the logarithmic growth phase was seeded on the plate and infected with the virus to prepare PIM1, 2, or 3 transgenic cells that proliferate in a PIM 1, 2, or 3-dependent manner. The expression of PIM1, 2, or 3 protein in each cell was confirmed by Western blotting.
(§2) Each test substance was prepared to 10 mM with dimethylsulfoxide (DMSO), and diluted with DMSO so as to have concentrations of 3000, 1000, 300, 100, 30, 10, 3, and 1 μM. Moreover, each dilution was further diluted 10-fold with distilled water to prepare a test substance solution.
(§3) PIM1, 2, 3-expressing cells were seeded on a 96-well plate, and each test substance solution prepared the next day was added such that final concentrations were 10000, 3000, 1000, 300, 100, 30, 10, 3, and 1 nM. 72 hours after the addition, 10 μL of Cell Counting Kit-8 (DOJINDO LABORATORIES) was added to each well. After incubation for 1 to 4 hours, absorbance OD450 at 450 nm was measured. In addition, absorption OD650 at 650 nm as a reference wavelength was measured.
(§4) OD450-OD650 for each condition was calculated, and then the inhibition rates when OD450-OD650 of negative control (DMSO only) and OD450-OD650 of Blank (without cells) were set to 0% and 100%, respectively, were calculated. Then, non-linear regression analysis was performed for logarithmic dose and inhibition rate using a two-parameter logistic model to estimate IC50 values.
(§5) For the compounds with the following Example numbers, in addition to the above proliferation inhibitory effect on PIM1 transgenic cells, the proliferation inhibitory effect on PIM2 transgenic cells and the proliferation inhibitory effect on PIM3 transgenic cells were calculated as IC50.

Assay [4] has as its target PIM3 transgenic cells (Ba/F3) (Homo sapiens, UniProt Q86V86). The assay is described as follows: Proliferation inhibitory effect on PIM3 transgenic cells. As to conditions: proliferation inhibition, 72 hours, Cell Counting Kit-8, read-out: PIM3 IC50. The class given is cell-based, mouse.
Text: as §1, §2, §3, §4, §5

Assay [5] concerns graft-versus-host disease model CB6F1 mice. The experiment in a line: Lymphocyte proliferation inhibitory effect using graft-versus-host disease model animals (splenomegaly formation). The class given is in vivo. The note with it: Mus musculus, 240 h, oral, twice a day for 10 days, GVHD model CB6F1 mice, read-out: Inhibition rate (%) (splenomegaly formation); for inhibition in vivo at 20 mg/kg: single dose 20 mg/kg.

Sequence of PIM1 transgenic cells (Ba/F3) (P11309 whole entry, stated change not applied): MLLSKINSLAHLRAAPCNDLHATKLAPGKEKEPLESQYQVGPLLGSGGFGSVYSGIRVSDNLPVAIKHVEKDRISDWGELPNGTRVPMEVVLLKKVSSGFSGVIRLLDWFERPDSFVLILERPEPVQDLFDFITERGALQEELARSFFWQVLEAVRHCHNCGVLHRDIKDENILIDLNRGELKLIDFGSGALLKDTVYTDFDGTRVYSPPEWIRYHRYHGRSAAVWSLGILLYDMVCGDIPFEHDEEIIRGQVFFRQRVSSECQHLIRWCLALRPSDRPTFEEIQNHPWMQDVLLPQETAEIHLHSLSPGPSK
T1 sequence (P11309 whole entry): as the sequence (P11309 whole entry, stated change not applied) above
Sequence of PIM2 transgenic cells (Ba/F3) (Q9P1W9 whole entry, stated change not applied): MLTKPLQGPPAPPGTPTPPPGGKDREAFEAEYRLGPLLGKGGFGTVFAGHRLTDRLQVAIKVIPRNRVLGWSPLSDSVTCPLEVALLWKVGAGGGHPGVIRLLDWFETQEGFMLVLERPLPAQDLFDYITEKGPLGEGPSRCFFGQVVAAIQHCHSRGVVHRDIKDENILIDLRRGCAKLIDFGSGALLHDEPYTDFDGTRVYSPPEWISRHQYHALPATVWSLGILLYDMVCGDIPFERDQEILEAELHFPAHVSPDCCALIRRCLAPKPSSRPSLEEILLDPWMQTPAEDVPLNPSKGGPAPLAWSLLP

The IC50 is the concentration at which inhibition is half-maximal. Read a low IC50 as inhibition by little substance. In assay [1], `C[C@H](Nc1cc(-c2n[nH]c(=O)o2)cc(F)c1C(F)(F)F)C1CCNCC1.Cl` [Example 75, 5-[3-fluoro-5-{[(1S)-1-(piperidin-4-yl)ethyl]amino}-4-(trifluoromethyl)phenyl]-1,3,4-oxadiazol-2(3H)-one hydrochloride] displayed an IC50 of 1.4 nM. Also, the GI50 is 24 nM in assay [2], 620 nM in assay [3] and 120 nM in assay [4]. Also, the inhibition in vivo at 6 mg/kg in assay [5] (single dose 6 mg/kg) came to 21.7%. For the same molecule, in assay [5], the inhibition in vivo at 20 mg/kg is 27.1%.

Molecule `C[C@H](Nc1cc(-c2n[nH]c(=O)o2)cc(F)c1OC(F)(F)F)C1CCNCC1.Cl` [Example 202, 5-[3-fluoro-5-{[(1S)-1-(piperidin-4-yl)ethyl]amino}-4-(trifluoromethoxy)phenyl]-1,3,4-oxadiazol-2(3H)-one hydrochloride] registered a half-inhibitory concentration (IC50) in assay [1] of 1.5 nM. The GI50 in assay [2] amounted to 26 nM; in assay [3], 790 nM; in assay [4], 78 nM. Besides, in assay [5] (single dose 10 mg/kg), the inhibition in vivo at 10 mg/kg was determined as 28.4%. In addition, in assay [5], the inhibition in vivo at 20 mg/kg is 33.5%.
